Results from patent US12577247B2 (BUGWORKS RESEARCH, INC., priority 2021, dated 2026).

Experiments:
[1] = target: T1, A2B receptor (Homo sapiens, UniProt P29275); assay: A2bR antagonism IC50, cAMP TR-FRET (Lance Ultra) in HEK-293 cells, NECA as agonist; format: cell-based; parameters: host or cells: HEK-293; conditions: HEK-293 cells expressing A2B receptor; agonist NECA 30 nM (EC90); inhibition of cAMP
T1 sequence (P29275 1-332): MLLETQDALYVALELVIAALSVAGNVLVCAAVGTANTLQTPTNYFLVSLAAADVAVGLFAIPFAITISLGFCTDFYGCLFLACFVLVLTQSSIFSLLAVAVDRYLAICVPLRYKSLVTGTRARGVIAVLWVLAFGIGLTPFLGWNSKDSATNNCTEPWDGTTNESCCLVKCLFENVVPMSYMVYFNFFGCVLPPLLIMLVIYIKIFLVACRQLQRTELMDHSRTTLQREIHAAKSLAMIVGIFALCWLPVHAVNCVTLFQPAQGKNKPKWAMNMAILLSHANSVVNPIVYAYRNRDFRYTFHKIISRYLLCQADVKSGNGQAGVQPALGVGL
Source text: (§1) Adenosine A2A receptors and Adenosine A2B receptors induce the production of cAMP when activated/stimulated by an agonist like adenosine or 5′-(N-Ethylcarboxamido) adenosine (NECA). A Time-Resolved Fluorescence Energy Transfer (TR-FRET) assay was used to show the inhibition of this cAMP production in HEK cells upon treatment with compounds of the Formula I of the present disclosure.
(§2) HEK-293 cells expressing A2A receptor (#ES-011-C) or A2B receptor (#ES 013-C) were obtained from PerkinElmer. Cells were maintained in DMEM medium supplemented with 10% FBS and 200 μg/mL of G418 at 37° C. and 5% CO2. The cells were cultured in antibiotic free medium for a period of 16-20 hours prior to the assay. All subsequent steps of the assay are performed at room temperature (22-24° C.). The cells were harvested at about 80% confluency by gentle flushing with PBS, recovered by centrifugation and resuspended in stimulation buffer at the concentration of 5.0×10^6 cells/mL.
(§3) The assays were conducted in a stimulation buffer containing 1×DMEM, 5 mM HEPES, 0.1% BSA stabilizer and 20-30 μM Rolipram. Serial dilutions of compounds were made in stimulation buffer to achieve a final concentration of high micromolar (10 μM to 0.08 nM) in the reaction volume of 10 μL. The total reaction volume was 10 μL (5 μL of cells, 2.5 μL of antagonist and 2.5 μL of agonist). The stimulation was ended, and the reaction completed by adding 5 μL of 4× Eu-cAMP tracer working solution and 5 μL of 4× ULight-anti-cAMP working solution. The TR-FRET signal was measured after 1-hour incubation using a Tecan M1000 reader.

[2] = target: T2, A2A receptor (Homo sapiens, UniProt P29274); assay: A2aR antagonism IC50, cAMP TR-FRET (Lance Ultra) in HEK-293 cells, NECA as agonist; format: cell-based; conditions: A2AR IC50 (nM) (@5 nM NECA), HEK-293 cells expressing A2A receptor; agonist NECA 5 nM (EC90); inhibition of cAMP;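 also: compounds tested from 10 µM down to 0.08 nM in buffer with Rolipram at room temperature, TR-FRET cAMP signal read 1 h after adding Eu-cAMP tracer and ULight anti-cAMP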
T2 construct: host or cells: HEK-293
Source text: as §1, §2, §3

[3] = target: T2, A2A receptor; assay: A2aR antagonism IC50, cAMP TR-FRET in HEK-293 cells, high concentration of adenosine (30 μM); format: cell-based; conditions: HEK-293 cells expressing A2A receptor; agonist adenosine 30 μM; 2% HSA; inhibition of cAMP; read-out: A2AR IC50 (nM) (@30 μM Adenosine);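 also: compounds added 10 min before adenosine, then 30 min stimulation at room temperature in buffer with 100 µM rolipram and 30 µM EHNA, signal read 1 h after detection reagents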
[4] = target: T1, A2B receptor; assay: A2bR antagonism IC50, cAMP TR-FRET in HEK-293 cells, high concentration of adenosine (30 μM); conditions: A2BR IC50 (nM) (@30 μM Adenosine), HEK-293 cells expressing A2B receptor; agonist adenosine 30 μM; 2% HSA; inhibition of cAMP;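 also: compounds preincubated 10 min with cells, then adenosine stimulation 30 min at room temperature in buffer with Rolipram 100 µM and EHNA 30 µM, TR-FRET read after 1 h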

T2 sequence (P29274 whole entry): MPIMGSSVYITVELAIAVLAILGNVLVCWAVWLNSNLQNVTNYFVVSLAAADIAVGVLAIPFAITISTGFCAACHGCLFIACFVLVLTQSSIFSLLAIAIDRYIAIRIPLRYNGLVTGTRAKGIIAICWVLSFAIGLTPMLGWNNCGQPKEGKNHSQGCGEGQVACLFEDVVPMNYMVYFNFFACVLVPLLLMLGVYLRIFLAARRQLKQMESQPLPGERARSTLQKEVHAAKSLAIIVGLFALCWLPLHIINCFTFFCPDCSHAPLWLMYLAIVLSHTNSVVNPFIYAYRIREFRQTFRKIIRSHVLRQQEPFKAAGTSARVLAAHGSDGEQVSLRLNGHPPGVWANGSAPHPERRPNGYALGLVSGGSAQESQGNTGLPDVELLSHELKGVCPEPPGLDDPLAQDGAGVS

| Compound | IC50 [1] | IC50 [2] | IC50 [3] | IC50 [4] |
| --- | --- | --- | --- | --- |
| Cc1cccc(CCNc2nc3c(CC4CC4)c(C)nn3c(N)c2C#N)n1 [Example 26, 7-amino-3-(cyclopropylmethyl)-2-methyl-5-((2-(6-methylpyridin-2-yl)ethyl)amino) pyrazolo[1,5-a]pyrimidine-6-carbonitrile] | 0.83 nM | 2.9 nM |  |  |
| COc1cccc(CCNc2nc3c(C)c(C)nn3c(N)c2C#N)n1 [Example 12, 7-amino-5-((2-(6-methoxypyridin-2-yl)ethyl)amino)-2,3-dimethylpyrazolo[1,5-a]pyrimidine-6-carbonitrile] | 3.7 nM | 0.9 nM |  |  |
| CCc1nn2c(N)c(C#N)c(NCCc3cccc(C(C)(C)O)n3)nc2c1C [Example 43, 7-amino-2-ethyl-5-((2-(6-(2-hydroxypropan-2-yl)pyridin-2-yl)ethyl)amino)-3-methylpyrazolo[1,5-a]pyrimidine-6-carbonitrile] | 123 nM | 2.3 nM |  |  |
| CCc1c(C)nn2c(N)c(C#N)c(NCCc3nc(C4(CO)CC4)cs3)nc12 [Example 66] | 21 nM | 5 nM |  |  |
| CCc1c(C)nn2c(N)c(C#N)c(NC(C)Cc3ccccn3)nc12 (single isomer, unassigned) [Example 23, 7-Amino-3-ethyl-2-methyl-5-((1-(pyridin-2-yl)propan-2-yl)amino) pyrazolo[1,5-a]pyrimidine-6-carbonitrile] | 130 nM | 11 nM |  |  |
| Cc1nn2c(N)c(C#N)c(NCCc3cccc(C(C)(C)O)n3)nc2c1C [Example 16, 7-amino-5-({2-[6-(2-hydroxypropan-2-yl)pyridin-2-yl]ethyl}amino)-2,3-dimethylpyrazolo[1,5-a]pyrimidine-6-carbonitrile] | 53 nM | 2 nM |  |  |
| Cc1nn2c(N)c(C#N)c(NCc3ccn(C(C)(C)CO)n3)nc2c1C [Example 57, 7-amino-5-(((1-(1-hydroxy-2-methylpropan-2-yl)-1H-pyrazol-3-yl)methyl)amino)-2,3-dimethylpyrazolo[1,5-a]pyrimidine-6-carbonitrile] | 100 nM | 13 nM |  |  |
| CCc1c(C)nn2c(N)c(C#N)c(NCCc3cccc(C(C)(C)CO)n3)nc12 [Example 52, 7-amino-3-ethyl-5-((2-(6-(1-hydroxy-2-methylpropan-2-yl)pyridin-2-yl)ethyl)amino)-2-methylpyrazolo[1,5-a] pyrimidine-6-carbonitrile] | 29.3 nM | 0.54 nM |  |  |
| CCc1c(C(F)F)nn2c(N)c(C#N)c(NCCc3cccc(CO)n3)nc12 [Example 56, 7-amino-2-(difluoromethyl)-3-ethyl-5-((2-(6-(hydroxymethyl)pyridine-2-yl)ethyl)amino) pyrazolo[1,5-a] pyrimidine-6-carbonitrile] | 11 nM | 3.3 nM |  |  |
| Cc1c(C2CC2)nn2c(N)c(C#N)c(NCCc3cccc(C(C)(C)O)n3)nc12 [Example 47, 7-amino-2-cyclopropyl-5-((2-(6-(2-hydroxypropan-2-yl)pyridin-2-yl)ethyl)amino)-3-methylpyrazolo[1,5-a]pyrimidine-6-carbonitrile] |  | 7.2 nM |  |  |
| CCc1c(C)nn2c(N)c(C#N)c(NCCc3ccc(F)cn3)nc12 [Example 21, 7-Amino-3-ethyl-5-((2-(5-fluoropyridin-2-yl)ethyl)amino)-2-methylpyrazolo[1,5-a]pyrimidine-6-carbonitrile] | 13 nM | 3.9 nM |  |  |
| Cc1nn2c(N)c(C#N)c(NCCc3ccn(C(C)(C)CO)n3)nc2c1C [Example 31, 7-amino-5-({2-[1-(1-hydroxy-2-methylpropan-2-yl)-1H-pyrazol-3-yl]ethyl}amino)-2,3-dimethylpyrazolo[1,5-a]pyrimidine-6-carbonitrile] | 51 nM | 0.73 nM |  |  |
| Cc1cccc(CNc2nc3c(C)c(C)nn3c(N)c2C#N)n1 [Example 6, 7-amino-2,3-dimethyl-5-{[(6-methylpyridin-2-yl)methyl]amino}pyrazolo[1,5-a] pyrimidine-6-carbonitrile] | > 3000 nM | 6.6 nM |  |  |
| Cc1nn2c(N)c(C#N)c(NCCc3cccc(C(C)(C)CO)n3)nc2c1C [Example 53, 7-amino-5-((2-(6-(1-hydroxy-2-methylpropan-2-yl)pyridine-2-yl)ethyl)amino)-2,3-dimethylpyrazolo[1,5-a]pyrimidine-6-carbonitrile] | 27 nM | 0.3 nM |  |  |
| CCc1c(C)nn2c(N)c(C#N)c(NCCc3cccc(C(C)(C)O)n3)nc12 [Example 25, 7-amino-3-ethyl-5-({2-[6-(2-hydroxypropan-2-yl)pyridin-2-yl]ethyl}amino)-2-methylpyrazolo[1,5-a]pyrimidine-6-carbonitrile] | 14 nM | 0.2 nM |  |  |
| Cc1nn2c(N)c(C#N)c(NCCc3ccn(C4CCC4CO)n3)nc2c1Cl (centres unmarked) [Example 67, 7-amino-3-chloro-5-((2-(1-(2-(hydroxymethyl)cyclobutyl)-1H-pyrazol-3-yl)ethyl)amino)-2-methylpyrazolo[1,5-a]pyrimidine-6-carbonitrile] |  | 0.1 nM | 50 nM | 1880 nM |
| Cc1cccc([C@H](C)Nc2nc3c(C)c(C)nn3c(N)c2C#N)n1 [Example 2, 7-amino-2,3-dimethyl-5-{[(1S)-1-(6-methylpyridin-2-yl)ethyl]amino}pyrazolo [1,5-a]pyrimidine-6-carbonitrile] | 547 nM | 2 nM |  |  |
| Cc1cccc(CC(C)Nc2nc3c(C)c(C)nn3c(N)c2C#N)n1 (single isomer, unassigned) [Example 14, 7-amino-2,3-dimethyl-5-{[1-(6-methylpyridin-2-yl)propan-2-yl]amino}pyrazolo[1,5-a]pyrimidine-6-carbonitrile] | 7 nM | 1 nM |  |  |
| CCc1c(C)nn2c(N)c(C#N)c(NCCc3ccn(C(C)CO)n3)nc12 (centres unmarked) [Example 81, 7-amino-3-ethyl-5-((2-(1-(1-hydroxypropan-2-yl)-1H-pyrazol-3-yl)ethyl)amino)-2-methylpyrazolo[1,5-a]pyrimidine-6-carbonitrile] | 3.6 nM |  | 63 nM | 1050 nM |
| CCc1nn2c(N)c(C#N)c(NCCc3cccc(C)n3)nc2c1C [Example 42, 7-amino-2-ethyl-3-methyl-5-((2-(6-methylpyridin-2-yl)ethyl)amino) pyrazolo[1,5-a]pyrimidine-6-carbonitrile] | 76 nM | 0.88 nM |  |  |
| Cc1nn2c(N)c(C#N)c(NCCc3cccc(CO)n3)nc2c1C [Example 44, 7-amino-5-((2-(6-(hydroxymethyl)pyridin-2-yl)ethyl)amino)-2,3-dimethylpyrazolo[1,5-a]pyrimidine-6-carbonitrile] | 2.3 nM | 1.3 nM |  |  |
| CCc1c(C)nn2c(N)c(C#N)c(N[C@H](C)c3ccccn3)nc12 [Example 3, (R)-7-Amino-3-ethyl-2-methyl-5-((1-(pyridin-2-yl)ethyl)amino) pyrazolo[1,5-a] pyrimidine-6-carbonitrile] | > 3000 nM | 1010 nM |  |  |
| CCc1c(C)nn2c(N)c(C#N)c(NCCc3ccn(CCO)n3)nc12 [Example 54, 7-amino-3-ethyl-5-((2-(1-(2-hydroxyethyl)-1H-pyrazol-3-yl)ethyl)amino)-2-methylpyrazolo[1,5-a]pyrimidine-6-carbonitrile] | 5 nM | 0.74 nM |  |  |
| Cc1cccc(C(C)Nc2nc3c(C)c(C)nn3c(N)c2C#N)n1 (centres unmarked) [Example 1, 7-amino-2,3-dimethyl-5-{[1-(6-methylpyridin-2-yl)ethyl]amino}pyrazolo[1,5-a]pyrimidine-6-carbonitrile] | 1330 nM | 10 nM |  |  |
| CCc1cnn2c(N)c(C#N)c(NCCc3cc(C)n(C4(CO)CC4)n3)nc12 [Example 80, 7-amino-3-ethyl-5-((2-(1-(1-(hydroxymethyl)cyclopropyl)-5-methyl-1H-pyrazol-3-yl)ethyl)amino) pyrazolo[1,5-a]pyrimidine-6-carbonitrile] | 12 nM |  | 83 nM | 3800 nM |
| Cc1nn2c(N)c(C#N)c(NCCc3cccc(CO)n3)nc2c1CC1CC1 [Example 46, 7-amino-3-(cyclopropylmethyl)-5-((2-(6-(hydroxymethyl)pyridin-2-yl)ethyl)amino)-2-methylpyrazolo[1,5-a]pyrimidine-6-carbonitrile] |  | 1.9 nM |  |  |
| CCc1c(C)nn2c(N)c(C#N)c(NCCc3ccn(CC4(CO)CC4)n3)nc12 [Example 63, 7-amino-3-ethyl-5-((2-(1-((1-(hydroxymethyl)cyclopropyl)methyl)-1H-pyrazol-3-yl)ethyl)amino)-2-methylpyrazolo[1,5-a]pyrimidine-6-carbonitrile] | 7.3 nM |  | 810 nM | 2800 nM |
| Cc1nn2c(N)c(C#N)c(NCCc3cccc(C(F)(F)CO)n3)nc2c1Cl [Example 64, 7-amino-3-chloro-5-((2-(6-(1,1-difluoro-2-hydroxyethyl)pyridin-2-yl)ethyl)amino)-2-methylpyrazolo[1,5-a]pyrimidine-6-carbonitrile] | 11 nM |  | 284 nM | 9070 nM |
